For assay [1], the system named is H3K4me3 mark. As to the kind of experiment: Histone lysine demethylase immunofluorescence assay, non-transfected U2OS cells. It counts as cell-based. The following applies: Homo sapiens, staining of the H3K4me3 mark, 20 hours incubation with compound. The procedure, abridged: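 Non-transfected U2OS cells incubated with compounds 20 h in DMEM/5% FBS. Fixed cells immunostained for H3K4me3 with Hoechst counterstain and imaged by high-throughput microscopy. IC50 based on average cellular H3K4me3 staining.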

Assay [2] deals with T1, KDM4A (Homo sapiens, UniProt O75164).
T1 construct: Full length; host or cells: U2OS
T1 sequence (O75164 1-1064): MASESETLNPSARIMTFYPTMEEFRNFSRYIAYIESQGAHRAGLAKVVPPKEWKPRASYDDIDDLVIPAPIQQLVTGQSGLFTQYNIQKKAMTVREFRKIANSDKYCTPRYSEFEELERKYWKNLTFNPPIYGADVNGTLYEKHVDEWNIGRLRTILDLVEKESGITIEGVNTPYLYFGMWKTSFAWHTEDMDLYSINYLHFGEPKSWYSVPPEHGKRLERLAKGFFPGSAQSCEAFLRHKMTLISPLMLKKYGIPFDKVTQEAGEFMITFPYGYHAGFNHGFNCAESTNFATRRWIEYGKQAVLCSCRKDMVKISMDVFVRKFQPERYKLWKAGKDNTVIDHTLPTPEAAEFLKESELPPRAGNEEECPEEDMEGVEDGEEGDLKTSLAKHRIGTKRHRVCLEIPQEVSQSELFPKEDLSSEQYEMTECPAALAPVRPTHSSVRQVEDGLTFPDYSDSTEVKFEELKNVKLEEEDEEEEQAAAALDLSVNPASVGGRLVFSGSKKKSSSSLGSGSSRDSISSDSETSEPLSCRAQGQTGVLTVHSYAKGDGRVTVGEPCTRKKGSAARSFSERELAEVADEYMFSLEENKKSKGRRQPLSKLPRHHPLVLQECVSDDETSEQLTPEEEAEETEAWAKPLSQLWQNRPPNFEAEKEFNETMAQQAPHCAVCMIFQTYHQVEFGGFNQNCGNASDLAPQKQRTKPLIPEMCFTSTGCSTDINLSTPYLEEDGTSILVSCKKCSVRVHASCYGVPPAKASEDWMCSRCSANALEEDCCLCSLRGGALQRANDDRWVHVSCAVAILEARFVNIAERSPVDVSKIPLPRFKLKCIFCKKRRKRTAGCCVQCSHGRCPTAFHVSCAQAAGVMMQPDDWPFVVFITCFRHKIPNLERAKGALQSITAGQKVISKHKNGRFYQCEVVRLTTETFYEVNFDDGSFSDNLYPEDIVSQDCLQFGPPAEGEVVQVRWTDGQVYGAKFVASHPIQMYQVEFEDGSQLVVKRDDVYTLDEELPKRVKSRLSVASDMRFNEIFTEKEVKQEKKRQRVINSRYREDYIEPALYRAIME
Kind of assay: Histone lysine demethylase immunofluorescence assay, U2OS cells transfected with KDM4A. It counts as cell-based. The following applies: U2OS cells transfected with pCMVHA KDM4A; mark detected H3K9me3; 20 hours. As to the method:
U2OS cells were seeded 24 hours before transfection. Transfection was performed with Fugene HD transfection reagent as recommended by the manufacturer. 6 hours after transfection, the cells were harvested and seeded into multi well plates into media containing compound. The media used was DMEM containing 10% FBS and pen/strep. 20 hours after incubation of cells with compounds, the cells were washed in PBS, harvested by fixation with formaldehyde 4% aqueous solution, and washed in PBS. Subsequently, the cells were permeabilized in PBS with 0.2% Triton X-100 for. Blocking was performed in PBS with 0.2% Triton X-100 and 5% FBS. The cells were incubated with primary antibodies in blocking solution over night at 4° C. The primary antibodies used in the assays were HA.11 (Covance, MMS-101P) and the antibody detecting the mark specified in the table below. After incubation with primary antibodies, the cells were washed with PBS, incubated with secondary antibodies (Alexa fluor 594 goat anti rabbit IgG, Invitrogen, A11012; Alexa flour 488 donkey anti mouse IgG, Invitrogen, A21202) and Hoechst, (Sigma, 33342) in blocking solution, and washed again with PBS. Finally, PBS was added and high throughput imaging and analysis were performed by an IN Cell Analyzer 1000 (GE Healthcare). The robot software analyzed individual cells and divided these into HA+ (transfected cells) and HA− (non-transfected cells). The IC50 values were based on an average measure of the staining of the mark specified in the table below in the transfected cells.

These results are taken from US9650339B2, “Inhibitors of histone demethylases” (Gilead Sciences, Inc., priority 2013, dated 2017).

As a reminder, the pIC50 is the negative decadic logarithm of the IC50, by convention in mol/L.

pIC50: −log10 of the molar value.

For the compound `CCN(CC)CCCCNCc1cc(C2NCCCN2C)ccn1` (stereo not shown) [Compound 68, [4-(diethylamino)butyl]({[4-(1-methyl-1,3-diazinan-2-yl)pyridin-2-yl]methyl})amine], the negative logarithm of the IC50 (pIC50) in assay [1] is greater than 6.60.

Compound `O=Cc1ccnc(CNCCCCN(Cc2ccccc2)C2CC2)c1` [Compound 109, 2-[({4-[benzyl-(cyclopropyl)amino]-butyl}amino)methyl]-pyridine-4-carbaldehyde] showed a negative-log IC50 (pIC50) in assay [2] of less than 5.60.

Turning to `COc1ccccc1CN1CCC(NC(=O)CNCc2cc(CNC3CC3)ccn2)CC1` [Compound 20, 2-[({4-[(cyclopropylamino)-methyl]pyridin-2-yl}methyl)amino]-N-{1-[(2-methoxyphenyl)methyl]-piperidin-4-yl}acetamide], the pIC50 is less than 5.60 in assay [2] and 5.60 to 6.60 in assay [1].
